According to article PMC10460880, “Cathepsin K‐Activated Probe for Fluoro‐Photoacoustic Imaging of Early Osteolytic Metastasis” (Advanced Science, 2023):

Assays:
cathepsin K (CTSK) = target: T1, cathepsin K (CTSK) (Homo sapiens, UniProt P43235); assay: In vitro CTSK activation of probes (UV-vis, fluorescence, PA); format: biochemical
T1 sequence (P43235 115-329): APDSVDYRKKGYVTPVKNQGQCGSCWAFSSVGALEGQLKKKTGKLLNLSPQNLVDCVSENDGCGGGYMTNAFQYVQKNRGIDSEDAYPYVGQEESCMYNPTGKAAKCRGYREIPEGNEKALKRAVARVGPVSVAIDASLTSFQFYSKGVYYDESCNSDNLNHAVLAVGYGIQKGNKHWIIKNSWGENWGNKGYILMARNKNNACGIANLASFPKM
Protocol: radiography (DR), and fluorescence imaging were carried out by using an IVIS Spectrum imaging system (PerkinElmer). Photoacoustic (PA) imaging was obtained on a multispectral optoacoustic tomography (MSOT) scanner (iThera Medical). Computed tomography (CT) imaging was recorded on single-photon emission computed tomography imaging system (Olympus). Magnetic resonance (MR) imaging was recorded on a preclinical magnetic resonance solution system (MR solutions).
(§1) In vitro analysis of cathepsin K (CTSK) activation, selectivity, and sensitivity studies.
Probe CTSK-APPA, D-CTSK-APPA, or CTSK-APP (10 μM) was incubated with CTSK in MES buffer (50 mM, pH 6.0) containing 0.1% DMSO, 2 mM ethylene diamine tetraacetic acid (EDTA), 4 mM dithiothreitol (DTT) and 0.15% chondroitin sulfate (CS) at 37 °C for 1 h. After incubation at the indicated time, UV-Vis spectra, fluorescence spectra, fluorescence images, and PA images of the solutions were recorded. Probe CyP (10 μM) incubated with CTSK (200 ng/mL) for 1 h was further analyzed by HPLC. For selectivity study, CTSK-APPA (10 μM) in a 96-well plate was incubated with CTSK (100 ng/mL), CTSB (100 ng/mL), FAP-α (9×10-4 U/mL), Caspase-3 (100 ng/mL), APN (100 ng/mL), GGT (0.1 U/mL), ALP (0.1 U/mL), ACE (1×10-3 U/mL), and trypsin (10 U/L) at […] for 1 h. […] The limit of detection was determined from emission intensities according to the equation: 3δ/k, where δ represents the standard deviation of blank, and k represents the slope of the fitting plot of emission intensities. Fluorescence images were captured by using the IVIS Spectrum imaging system with excitation at 660 ± 10 nm and emission at 710 ± 10 nm. […]
(§2) Kinetic assay. […] Fluorescence intensities of solution were measured for quantification analyses by a microplate reader (BioTek, Synergy 2) with excitation at 690 nm and emission at 720 nm. The kinetic parameters were calculated according to the Michaelis-Menten equation shown below: V = Vmax×[S]/(Km + [S]), where V is initial velocity, and [S] is substrate concentration. […]

[1] = tested on: CTSK + 2-CP; CTSB, FAP-α, Casp-3, APN, GGT, ALP, ACE, trypsin; assay: Selectivity study: fluorescence activation with inhibited CTSK or other proteases; format: biochemical; conditions: probe 10 μM, 1 h; 2-CP 50 mM pre-treatment 30 min; n = 3
Protocol: as §1
Probe CTSK-APPA, D-CTSK-APPA, or CTSK-APP (10 μM) was incubated with CTSK in MES buffer (50 mM, pH 6.0) containing 0.1% DMSO, 2 mM ethylene diamine tetraacetic acid (EDTA), 4 mM dithiothreitol (DTT) and 0.15% chondroitin sulfate (CS) at 37 °C for 1 h. After incubation at the indicated time, UV-Vis spectra, fluorescence spectra, fluorescence images, and PA images of the solutions were recorded. Probe CyP (10 μM) incubated with CTSK (200 ng/mL) for 1 h was further analyzed by HPLC. For selectivity study, CTSK-APPA (10 μM) in a 96-well plate was incubated with CTSK (100 ng/mL), CTSB (100 ng/mL), FAP-α (9×10-4 U/mL), Caspase-3 (100 ng/mL), APN (100 ng/mL), GGT (0.1 U/mL), ALP (0.1 U/mL), ACE (1×10-3 U/mL), and trypsin (10 U/L) at […] for 1 h. For the inhibitory experiment, CTSK (100 ng/mL) was treated with CTSK inhibitor 2-Cyanopyrimidine (2-CP, 50 mM) at 37°C for 30 min. […]
as §2

incubation time until absorption at 690 nm and fluorescence at 720 nm reach plateau (cathepsin K (CTSK); incubation with CTSK): ≈ 60 min | fluorescence on/off ratio at 720 nm (cathepsin K (CTSK); probe 10 μM + CTSK, MES buffer 50 mM pH 6.0, 0.1% DMSO, 37 °C, 1 h, Ex 690 nm, n = 3): ~20.9 | enhancement of photoacoustic signal (cathepsin K (CTSK); probe 10 μM + CTSK, MES buffer pH 6.0, 37 °C, 1 h, irradiated at 700 nm, n = 3): 5.2 fold
Substance: Cbz‐Leu‐Arg‐OH [CTSK-APPA]
fluorescence activation at 720 nm by CTSK with inhibitor 2-CP or by other proteases [1]: almost no fluorescence activation
